α/δ selectivity and IC50 data for 41 compounds are collected here from patent US9745321B2, “Fused pyrimidine compound, intermediate, preparation method therefor, and composition and application thereof” (SHANGHAI YINGLI PHARMACEUTICAL CO., LTD, priority 2013, dated 2017).

Each structure is given as a SMILES string. Bounds are passed on as bounds.

The target of test [1] is PI3Kα (Homo sapiens (Human), UniProt P42336). Put plainly: PI3Kα enzyme activity inhibition IC50 evaluation assay. In kind it is biochemical. To be noted: ratio PI3Kα vs PI3Kδ. Here is the method: (§1) PI3Kα, PI3Kδ, PI3Kβ and PI3Kγ Enzyme Activity Inhibition IC50 Evaluation Assay
(§2) • 1. Buffer preparation: 50 mM HEPES, pH 7.5, 3 mM MgCl2, 1 mM EGTA, 100 mM NaCl, 0.03% CHAPS. • 2. Compound was formulated in 100% DMSO in a concentration gradient, and added to a 384-well plate to a final DMSO concentration of 1%. • 3. PI3Kα, PI3Kδ, PI3Kβ and PI3Kγ enzymes were diluted to an optimum concentration with the following buffer: 50 mM HEPES, pH 7.5, 3 mM MgCl2, 1 mM EGTA, 100 mM NaCl, 0.03% CHAPS, 2 mM DTT, and transferred to a 384-well plate and incubated with the compound for a certain time. • 4. Substrate was diluted to an optimum concentration with the following buffer: 50 mM HEPES, pH 7.5, 3 mM MgCl2, 1 mM EGTA, 100 mM NaCl, 0.03% CHAPS, 2 mM DTT, 50 μM PIP2, 25 μM ATP; then added to a 384-well plate to initiate the reaction, and for PI3Kα, PI3Kβ and PI3Kγ at room temperature reacted for 1 hr, for PI3Kδ at room temperature reacted for 2 hrs. For PI3Kβ and PI3Kγ, it was still necessary to further add 10 μL ADP-Glo Detection Reagent, and then equilibrated at room temperature for 30 minutes. • 5. Read Luminescense with FlexStation, and calculate the inhibition rate as the average of two tests.

Test [2] deals with PI3Kδ (Homo sapiens (Human), UniProt O00329). Put plainly: PI3Kδ enzyme activity inhibition IC50 evaluation assay. In kind it is biochemical. Particulars: luminescence, 25 μM ATP, 50 μM PIP2, 2 hrs room temperature. How it is done:
as §1
as §2, with “Substrate was diluted to an optimum concentration with the following buffer: 50 mM HEPES, pH 7.5, 3 mM MgCl2, 1 mM EGTA, 100 mM NaCl, 0.03% CHAPS, 2 mM DTT, 50 μM PIP2, 25 μM ATP; then added to a 384-well plate to initiate the reaction, and for PI3Kα, PI3Kβ and PI3Kγ at room temperature reacted for 1 hr, for PI3Kδ at room temperature reacted for 2 hrs.” left out

PI3Kα, sequence (P42336 whole entry): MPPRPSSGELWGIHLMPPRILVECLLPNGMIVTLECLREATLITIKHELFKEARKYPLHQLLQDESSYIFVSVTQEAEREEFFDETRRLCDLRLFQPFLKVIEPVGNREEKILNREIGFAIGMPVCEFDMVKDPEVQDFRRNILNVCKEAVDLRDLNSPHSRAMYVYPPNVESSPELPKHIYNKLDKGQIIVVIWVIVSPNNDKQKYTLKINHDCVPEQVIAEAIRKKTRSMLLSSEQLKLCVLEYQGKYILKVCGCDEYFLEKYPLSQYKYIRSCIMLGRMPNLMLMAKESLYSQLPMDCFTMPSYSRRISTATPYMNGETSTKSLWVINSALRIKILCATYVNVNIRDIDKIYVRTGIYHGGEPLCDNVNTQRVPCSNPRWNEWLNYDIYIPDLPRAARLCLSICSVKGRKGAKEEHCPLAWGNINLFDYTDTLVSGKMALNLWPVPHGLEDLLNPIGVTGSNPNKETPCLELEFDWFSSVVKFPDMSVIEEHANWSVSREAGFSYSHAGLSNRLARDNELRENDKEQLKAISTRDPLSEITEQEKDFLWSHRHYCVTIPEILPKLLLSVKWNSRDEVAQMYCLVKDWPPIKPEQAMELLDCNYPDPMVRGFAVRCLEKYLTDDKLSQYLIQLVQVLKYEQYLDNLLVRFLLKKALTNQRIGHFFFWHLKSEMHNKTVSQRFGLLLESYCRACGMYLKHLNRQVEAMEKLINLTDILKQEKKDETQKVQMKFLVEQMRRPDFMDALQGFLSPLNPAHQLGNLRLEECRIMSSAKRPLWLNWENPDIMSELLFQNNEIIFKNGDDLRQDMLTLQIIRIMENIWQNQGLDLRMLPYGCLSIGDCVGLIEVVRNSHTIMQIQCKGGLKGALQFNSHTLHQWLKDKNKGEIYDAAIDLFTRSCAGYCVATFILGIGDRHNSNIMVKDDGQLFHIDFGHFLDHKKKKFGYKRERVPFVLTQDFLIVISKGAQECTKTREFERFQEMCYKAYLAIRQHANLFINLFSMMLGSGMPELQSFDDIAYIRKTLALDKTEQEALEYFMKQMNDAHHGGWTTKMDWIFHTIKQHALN
PI3Kα, sequence (P27986 whole entry partner): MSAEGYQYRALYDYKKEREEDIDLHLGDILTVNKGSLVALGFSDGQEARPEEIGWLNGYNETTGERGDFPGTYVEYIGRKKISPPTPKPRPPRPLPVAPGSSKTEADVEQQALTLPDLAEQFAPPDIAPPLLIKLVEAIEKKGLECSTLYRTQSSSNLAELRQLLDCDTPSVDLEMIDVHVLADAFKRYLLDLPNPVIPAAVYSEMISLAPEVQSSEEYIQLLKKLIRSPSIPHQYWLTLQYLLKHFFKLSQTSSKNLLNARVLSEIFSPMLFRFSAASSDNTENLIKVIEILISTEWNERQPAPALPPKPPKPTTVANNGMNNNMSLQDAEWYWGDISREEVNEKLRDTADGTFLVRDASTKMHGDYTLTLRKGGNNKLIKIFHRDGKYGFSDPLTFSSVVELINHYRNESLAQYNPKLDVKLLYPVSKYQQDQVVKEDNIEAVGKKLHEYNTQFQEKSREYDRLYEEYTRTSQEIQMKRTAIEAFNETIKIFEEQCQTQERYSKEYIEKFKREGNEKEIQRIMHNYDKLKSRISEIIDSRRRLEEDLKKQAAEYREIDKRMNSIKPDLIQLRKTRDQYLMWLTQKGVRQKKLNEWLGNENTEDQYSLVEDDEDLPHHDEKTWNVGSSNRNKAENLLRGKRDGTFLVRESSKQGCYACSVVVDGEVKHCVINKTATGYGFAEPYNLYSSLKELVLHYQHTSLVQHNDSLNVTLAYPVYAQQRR
PI3Kδ, sequence (O00329 whole entry): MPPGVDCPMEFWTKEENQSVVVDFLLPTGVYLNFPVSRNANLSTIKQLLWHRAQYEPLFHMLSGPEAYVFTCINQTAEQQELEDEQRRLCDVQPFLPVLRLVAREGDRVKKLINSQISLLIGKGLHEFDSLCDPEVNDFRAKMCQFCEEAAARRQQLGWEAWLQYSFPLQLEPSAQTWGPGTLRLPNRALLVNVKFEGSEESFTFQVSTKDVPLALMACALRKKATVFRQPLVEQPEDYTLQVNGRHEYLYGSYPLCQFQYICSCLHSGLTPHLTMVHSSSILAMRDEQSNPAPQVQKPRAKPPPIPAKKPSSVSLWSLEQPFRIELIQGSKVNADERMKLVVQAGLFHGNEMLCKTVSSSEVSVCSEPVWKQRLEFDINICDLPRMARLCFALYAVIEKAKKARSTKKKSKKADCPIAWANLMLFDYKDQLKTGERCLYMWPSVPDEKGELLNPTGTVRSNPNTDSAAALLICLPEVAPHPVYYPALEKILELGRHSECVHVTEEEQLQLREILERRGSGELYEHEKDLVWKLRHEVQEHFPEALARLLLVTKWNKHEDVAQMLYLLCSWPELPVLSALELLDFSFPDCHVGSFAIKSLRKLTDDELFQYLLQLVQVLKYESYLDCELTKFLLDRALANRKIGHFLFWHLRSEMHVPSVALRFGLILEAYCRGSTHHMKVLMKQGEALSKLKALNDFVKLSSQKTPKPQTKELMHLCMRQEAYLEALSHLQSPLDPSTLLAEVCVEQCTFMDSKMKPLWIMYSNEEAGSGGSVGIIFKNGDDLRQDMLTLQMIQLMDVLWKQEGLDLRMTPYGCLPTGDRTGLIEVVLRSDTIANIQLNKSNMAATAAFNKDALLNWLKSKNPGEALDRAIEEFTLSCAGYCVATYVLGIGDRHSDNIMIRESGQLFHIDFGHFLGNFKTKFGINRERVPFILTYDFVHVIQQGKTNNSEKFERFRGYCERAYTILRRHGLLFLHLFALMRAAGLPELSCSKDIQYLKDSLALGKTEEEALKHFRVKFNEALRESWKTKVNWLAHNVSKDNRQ
PI3Kδ, sequence (P27986 whole entry partner): as the sequence (P27986 whole entry partner) above

On to `CS(=O)(=O)N1CCN(Cc2csc3c(-c4c(F)ccc5[nH]ccc45)nc(N4CCOCC4)nc23)CC1` [Compound 1], for which, in test [1], the α/δ selectivity is on record as 12. Besides, the IC50 (in general, the concentration needed to halve the response being measured) in test [2] is 105 nM.
On the same counts, the results for `Cc1cc2c(-c3nc(N4CCOCC4)nc4c(CN5CCC(C(C)(C)O)CC5)csc34)cccc2[nH]1` [Compound 6] are greater than 69 and 145 nM.
For `c1cc(-c2nc(N3CCOCC3)nc3c(CN4CCC(N5CCOCC5)CC4)csc23)c2cc[nH]c2c1` [Compound 9] the same measures were greater than 200 and 50 nM.
On the same counts, the results for `O=C(CO)N1CCN(Cc2csc3c(-c4cccc5[nH]ccc45)nc(N4CCOCC4)nc23)CC1` [Compound 12] are 133 and 17 nM.
Take `CC(C)(O)CN1CCN(Cc2csc3c(-c4cccc5[nH]ccc45)nc(N4CCOCC4)nc23)CC1` [Compound 13]: in test [1], the α/δ selectivity was greater than 192. It took 52 nM to reach half-maximal inhibition in test [2] (IC50).
For `CC(C)(C)N1CCN(Cc2csc3c(-c4cccc5[nH]ccc45)nc(N4CCOCC4)nc23)CC1` [Compound 15] the same measures were greater than 294 and 34 nM.
On the same counts, the results for `Cc1oc2ccccc2c1-c1nc(N2CCOCC2)nc2c(CN3CCN(C(=O)C(C)C)CC3)csc12` [Compound 16] are 18 and 567 nM.
On the same counts, the results for `CC(C)(O)C1CCN(Cc2csc3c(-c4ccnc5[nH]ccc45)nc(N4CCOCC4)nc23)CC1` [Compound 17] are 74 and 53 nM.
As for `CCC(=O)N1CCN(Cc2csc3c(-c4cnn(C)c4)nc(N4CCOCC4)nc23)CC1` [Compound 18], the α/δ selectivity in test [1] stood at 58. Also, the IC50 in test [2] amounted to 86 nM.
For `CC(C)C(=O)N1CCN(Cc2csc3c(-c4cnn(C)c4)nc(N4CCOCC4)nc23)CC1` [Compound 19] the same measures were 49 and 87 nM.
On the same counts, the results for `Cc1cn(-c2nc(N3CCOCC3)nc3c(CN4CCN(C(=O)C(C)C)CC4)csc23)c(C)n1` [Compound 20] are 54 and 66 nM.
For `Cc1nn(C)c(C)c1-c1nc(N2CCOCC2)nc2c(CN3CCN(C(=O)C(C)C)CC3)csc12` [Compound 21] the same measures were 19 and 150 nM.
Take `Cc1nc(Cl)cn1-c1nc(N2CCOCC2)nc2c(CN3CCN(C(=O)C(C)C)CC3)csc12` [Compound 23]: the α/δ selectivity in test [1] was 40. Further, the half-maximal inhibitory concentration (IC50) in test [2] was determined as 27 nM.
On the same counts, the results for `COc1ncc(-c2nc(N3CCOCC3)nc3c(CN4C[C@@H](C)O[C@@H](C)C4)csc23)cc1NS(C)(=O)=O` [Compound 27] are 10 and 99 nM.
For `COc1ncc(-c2nc(N3CCOCC3)nc3c(CN4CCN(C(=O)OC(C)(C)C)CC4)csc23)cc1NS(C)(=O)=O` [Compound 28], the α/δ selectivity in test [1] came out at 56. For the same compound, the IC50 in test [2] was found to be 35 nM.
On the same counts, the results for `COc1ncc(-c2nc(N3CCOCC3)nc3c(CN4CCN(C5COC5)CC4)csc23)cc1NS(C)(=O)=O` [Compound 29] are 34 and 6.9 nM.
As for `CC(C)C(=O)N1CCN(Cc2csc3c(-n4ccnc4C(F)(F)F)nc(N4CCOCC4)nc23)CC1` [Compound 30], the α/δ selectivity in test [1] amounted to 36. The same compound registered a half-inhibitory concentration (IC50) in test [2] of 71 nM.
On the same counts, the results for `CC(C)C(=O)N1CCN(Cc2csc3c(-c4cncc(NS(C)(=O)=O)c4)nc(N4CCOCC4)nc23)CC1` [Compound 31] are 10 and 4.9 nM.
On the same counts, the results for `COc1ncc(-c2nc(N3CCOCC3)nc3c(CN4CCN(C(C)=O)CC4)csc23)cc1NS(C)(=O)=O` [Compound 32] are 15 and 4.3 nM.
In the case of `COc1ncc(-c2nc(N3CCOCC3)nc3c(CN4CCN(C5CCOCC5)CC4)csc23)cc1NS(C)(=O)=O` [Compound 33], the α/δ selectivity in test [1] turned out to be 51. This compound also yielded an IC50 in test [2] of 4.2 nM.
`COc1ncc(-c2nc(N3CCOCC3)nc3c(CN4CCN(C(C)(C)C)CC4)csc23)cc1NS(C)(=O)=O` [Compound 34]: the α/δ selectivity in test [1] is 44. The same compound displayed an IC50 in test [2] of 3.4 nM.
With `COc1ncc(-c2nc(N3CCOCC3)nc3c(CN4CCOCC4)csc23)cc1NS(C)(=O)=O` [Compound 36], in test [1], the α/δ selectivity came out at 23. The compound also had a concentration for half-maximal inhibition (IC50) in test [2] of 13 nM.
On the same counts, the results for `Cc1cn(-c2nc(N3CCOCC3)nc3c(CN4CCN(C(=O)C5CC5)CC4)csc23)c(C)n1` [Compound 37] are 38 and 28.9 nM.
On the same counts, the results for `COc1ncc(-c2nc(N3CCOCC3)nc3ccoc23)cc1NS(C)(=O)=O` [Compound 38] are 3 and 108 nM.
On the same counts, the results for `COc1ncc(-c2nc(N3CCOCC3)nc3c(CN4CCN(C5CCN(C)CC5)CC4)csc23)cc1NS(C)(=O)=O` [Compound 39] are 159 and 9.2 nM.
With `COc1ncc(-c2nc(N3CCOCC3)nc3c(CN4CCN(C(=O)C5CCCCC5)CC4)csc23)cc1NS(C)(=O)=O` [Compound 40], the α/δ selectivity in test [1] is recorded as 41. The same compound gave a half-inhibitory concentration (IC50) in test [2] of 17 nM.
On the same counts, the results for `COc1ncc(-c2nc(N3CCOCC3)nc3c(CN4CCC(C(C)(C)O)CC4)csc23)cc1NS(=O)(=O)c1ccccc1` [Compound 41] are 323 and 11.4 nM.
On the same counts, the results for `COc1ncc(-c2nc(N3CCOCC3)nc3c(CN4CCC(C(=O)NCC(F)(F)F)CC4)csc23)cc1NS(C)(=O)=O` [Compound 42] are 152 and 13 nM.
On the same counts, the results for `COc1ncc(-c2nc(N3CCOCC3)nc3c(CN4CCC(N(C)C)CC4)csc23)cc1NS(C)(=O)=O` [Compound 43] are 105 and 4 nM.
Regarding `COc1ncc(-c2nc(N3CCOCC3)nc3c(CN4CCN(C(=O)C(C)(C)C)CC4)csc23)cc1NS(C)(=O)=O` [Compound 46], the α/δ selectivity in test [1] is on record as 23. In test [2], the concentration for half-maximal inhibition (IC50) worked out at 6.1 nM.
On the same counts, the results for `COc1ncc(-c2nc(N3CCOCC3)nc3c(CN4CCN(C(=O)C(C)C)CC4)csc23)cc1NS(C)(=O)=O` [Compound 47] are 9 and 3.5 nM.
For `COc1ncc(-c2nc(N3CCOCC3)nc3c(CN4CC5CC4CN5C4COC4)csc23)cc1NS(C)(=O)=O` (stereo not shown) [Compound 48] the same measures were 52 and 6.9 nM.
On the same counts, the results for `COc1ncc(-c2nc(N3CCOCC3)nc3c(CN4CCN(C(=O)N5CCCC5)CC4)csc23)cc1NS(C)(=O)=O` [Compound 49] are 15 and 5.7 nM.
For `COc1ncc(-c2nc(N3CCOCC3)nc3c(CN4CCC(C(C)(C)O)CC4)csc23)cc1NS(=O)(=O)C1CC1` [Compound 50], the α/δ selectivity in test [1] worked out at 359. Moreover, the concentration for half-maximal inhibition (IC50) in test [2] is 13 nM.
For `COc1ncc(-c2nc(N3CCOCC3)nc3c(CN4CCN(C)CC4)csc23)cc1NS(C)(=O)=O` [Compound 51] the same measures were 103 and 11 nM.
For `COc1ncc(-c2nc(N3CCOCC3)nc3c(CN4CCC(N(C)C(=O)OC(C)(C)C)CC4)csc23)cc1NS(C)(=O)=O` [Compound 52] the same measures were 252 and 36 nM.
In the case of `COc1ncc(-c2nc(N3CCOCC3)nc3c(CN4CC(C(C)(C)O)C4)csc23)cc1NS(C)(=O)=O` [Compound 53], the α/δ selectivity in test [1] worked out at 110. Moreover, the IC50 in test [2] came to 19 nM.
For `COc1ncc(-c2nc(N3CCOCC3)nc3c(CN4CCC(C(C)(C)OC)CC4)csc23)cc1NS(C)(=O)=O` [Compound 54] the same measures were 108 and 2.7 nM.
For `COc1ncc(-c2nc(N3CCOCC3)nc3c(CN4CCC(N5C[C@@H](C)O[C@@H](C)C5)CC4)csc23)cc1NS(C)(=O)=O` [Compound 55] the same measures were 224 and 5.6 nM.
For `CCN(C)C1CCN(Cc2csc3c(-c4cnc(OC)c(NS(C)(=O)=O)c4)nc(N4CCOCC4)nc23)CC1` [Compound 56], the α/δ selectivity in test [1] was 293. This compound gave a half-maximal inhibitory concentration (IC50) in test [2] of 7.6 nM.
On the same counts, the results for `COc1ncc(-c2nc(N3CCOCC3)nc3c(CN4CCN(C(C)(C)C(N)=O)CC4)csc23)cc1NS(C)(=O)=O` [Compound 57] are 103 and 2.8 nM.
